Data: paper PMC12935787, “Clinical pharmacokinetics and pharmacometabolomics of Andrographis paniculata capsules: Bridging drug disposition and metabolic response to precision medicine” (Naunyn-Schmiedeberg's Archives of Pharmacology, 2025)

Tested on: Human metabolic pathways (KEGG)
Experiment: Urine pharmacometabolomics, peaks-to-pathway mummichog analysis
Format: in vivo, human (healthy volunteers)
Conditions: urinary PMx analysis, 1000 mg and 2000 mg AP (either dose)
Protocol: The protocol was published (Tee et al. [2022]).
Plasma samples (blank and subject) were thawed from −80 °C and processed using cold protein precipitation (200 μL plasma + 600 μL acetone:acetonitrile:methanol [1:1:1]). After −20 °C incubation (1 h) and centrifugation (10,000 rpm, 4 °C, 10 min), supernatants were filtered (0.22 μm) into LC–MS vials. System suitability test using vendor-provided internal standards ensured instrument performance parameters met acceptance criteria prior to metabolomics analysis. Samples (plasma and urine) were prepared in four batches. Each batch was analyzed separately in positive and negative ionization modes using a global metabolomics approach, resulting in eight analytical batches. Each analytical batch commenced with blank water, blank water spiked with internal standard (IS), and blank plasma or urine (with and without IS), all meeting the acceptance criteria in Figure S6 and Figure S7. Five pooled quality control (PQC) samples were analyzed at batch start, with additional PQCs interspersed after every fourth subject sample to monitor LC–MS system stability. Chromatogram overlays of all PQCs for every batch were assessed for consistency and instrument stability. Overlays of PQCs with subject samples were also evaluated in Figure S8. All eight batches met predefined acceptance criteria prior to data processing.
Dose-dependent PMx analyses compared pre-dose (T0) with post-dose time points (T2.5, T3, T3.5) for plasma and pre-dose (U0) with post-dose intervals (0–4 h [U1], 4–8 h [U2], 8–12 h [U3]) for urine, using positive and negative ion mode acquisition.
PCA results for pre- and post-dose urine samples were obtained by performing similar statistical and multivariate analyses of metabolite data (Figure S5). Batch effects were not observed in the normalized datasets for both positive and negative modes at either dose. All urine samples were successfully analyzed, except for samples U13 and U14 for the 1000 mg AP dose in positive mode, which were not captured due to a power supply issue with the LC–MS during the analysis.

| free compound detected in urine | SMILES |
| --- | --- |
| detected no free | C=C1CC[C@@H]2[C@](C)(CO)[C@H](O)CC[C@@]2(C)[C@@H]1C/C=C1/C(=O)OC[C@H]1O [andrographolide] |
| detected no free | C=C1CC[C@@H]2[C@](C)(CO)[C@H](O)CC[C@@]2(C)[C@@H]1CCC1=CCOC1=O [14-deoxyandrographolide] |
| detected no free | C=C1CC[C@@H]2[C@](C)(CO[C@@H]3O[C@H](CO)[C@@H](O)[C@H](O)[C@H]3O)CCC[C@@]2(C)[C@@H]1CCC1=CCOC1=O [neoandrographolide] |
